# Experimental data taken from publication PMC6478909 (Scientific Reports, 2019).
# Where two headings read alike, the source gives them in different places.
# Experiments:
# [1] = biological target: T1, precorrin-4 C(11)-methyltransferase (CobM), Cp-CobM (Corynebacterium pseudotuberculosis, UniProt D9QAC4); test: biochemical; type: binding
# [2] = biological target: T1, precorrin-4 C(11)-methyltransferase (CobM), Cp-CobM; test: biochemical; type: binding; remark: listed apart in the source
# T1 sequence (D9QAC4 1-257): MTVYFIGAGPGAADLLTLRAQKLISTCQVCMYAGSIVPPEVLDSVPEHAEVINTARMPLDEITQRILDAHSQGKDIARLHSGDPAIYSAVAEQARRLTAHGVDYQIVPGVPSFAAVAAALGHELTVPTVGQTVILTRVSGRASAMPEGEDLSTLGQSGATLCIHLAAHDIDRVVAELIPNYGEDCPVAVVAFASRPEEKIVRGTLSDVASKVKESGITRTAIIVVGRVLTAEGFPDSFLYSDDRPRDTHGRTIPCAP
Structure (SMILES),Kd [1] [µM],Kd [2] [µM]
Nc1ncnc2nc[nH]c12 [adenine],17.8 ± 1.5,–
Cc1ccc(C(=O)Nc2ccc(S(=O)(=O)O)c3cc(S(=O)(=O)O)cc(S(=O)(=O)O)c23)cc1NC(=O)c1cccc(NC(=O)Nc2cccc(C(=O)Nc3cc(C(=O)Nc4ccc(S(=O)(=O)O)c5cc(S(=O)(=O)O)cc(S(=O)(=O)O)c45)ccc3C)c2)c1 [suramin],–,6.3 ± 1.1
C[S+](CC[C@H](N)C(=O)[O-])C[C@H]1O[C@@H](n2cnc3c(N)ncnc32)[C@H](O)[C@@H]1O (stereo partly shown) [SAM],–,1.4 ± 0.7
Nc1ncnc2c1ncn2[C@H]1C[C@H](O)[C@@H](COP(=O)(O)OP(=O)(O)OP(=O)(O)O)O1 [dATP],15.8 ± 2,–
